We go through 13 compounds from patent US20060167271A1, “Purified compounds that inhibit intracellular alphax4/paxillin binding” (priority 2002, published 2006).

In experiment [1] the target is T1, Paxillin/α4 binding (immobilized His-tagged α4 tail, soluble recombinant Paxillin) (Homo sapiens, UniProt P13612+P49023).
T1 construct: The design and production of recombinant cytoplasmic α4 tail polypeptide have been described; made in house; host or cells: E. coli BL21(DE3)pLysS for the α4 tail
The experiment is described as follows: Immobilized Paxillin/α4 binding assay (ELISA). How it is done:
FIG. 4 is a schematic representation of the high throughput screening by ELIZA used herein in which the α4 tail is coated onto a Ni-NTA microtiter plate (a), Paxillin is permitted to bind to α4 (b), first antibody is added (anti-Paxillin) (c), second antibody is added (HRP-conjugated, anti-mouse) (d), and Pax/α4 binding efficiency is measured by detection at 490 nm (e). For binding inhibition, compounds were added during Paxillin incubation (step b). […], zero % inhibition was measured from incubation with Paxillin and no compound.
Initially, roughly 40,000 compounds were screened in approximately 2000 wells (most as a mixture of 10 compounds, 50 μM total concentration) in an ELISA assay using an immobilized His-tagged α4 tail [Pfaff et al. (1998) J. Biol. Chem. 273, 6104-6109] and examining the binding inhibition of soluble recombinant Paxillin [Salgia et al. (1995) J. Biol. Chem. 270, 5039-5047] (FIG. 3).
Paxillin/α4 binding assays were performed as follows. Ni-NTA HisSorb microtiter strips (Qiagen) were coated overnight at 4° C. with purified α4 tail integrin (5 μg/ml, 100 μl per well) in PBS buffer (8 mM Na2HPO4, 1.5 mM KH2PO4, 135 mM NaCl, 2.5 mM KCl [pH 7.4]) supplemented with heat-denatured BSA (0.2%). The plates were washed three times with PBS buffer to remove unbound integrin, blocked with 150 μl of heat-denatured 1% BSA (denatured at 85° C. for 30 minutes and supplemented with 0.05% sodium azide) for 1 hour at room temperature, and washed again three times with PBS buffer.
Purified Paxillin in binding buffer (10% DMSO, 0.2% BSA in PBS buffer) was added to the wells at a concentration of 5 μg/ml in the presence or absence of compounds (1 mM DMSO stock solutions). […] As a control, blocked wells without integrin were examined for binding. After 1 hour at room temperature, the wells were washed three times with PBS buffer, incubated with first antibody (12CA5 ascites, 1/10000 in PBS plus 1% BSA, 100 μL) for 1 hour at room temperature, then with second antibody (100 μl HRP-conjugated anti-mouse [Biosource] in PBS buffer plus 1% BSA) for 1 hour at room temperature. Each well was treated with 50 μl of substrate solution (4 mg o-phenylenediamine, 4 μl of 30% H2O2, 80 mM citrate phosphate [pH 5]) and stopped after 10 minutes at room temperature with 50 μl H2SO4 (2 N). Binding was quantitated on a vmax kinetic microplate reader (Molecular Devices) at 490 nm. Zero % inhibition control was measured with Paxillin and no compound, and 100% inhibition control (background) was measured with no Paxillin and no compound. Each well was duplicated and percent inhibition was averaged.

The target of experiment [2] is T2, binding of Paxillin to the α4 tail protein (Homo sapiens, UniProt P13612+P49023).
T2 construct: The design and production of recombinant cytoplasmic α4 tail polypeptide have been described; made in house; host or cells: E. coli BL21(DE3)pLysS for the α4 tail
T2 sequence (P13612 1002-1032 limits assumed): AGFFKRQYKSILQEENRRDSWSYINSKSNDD
T2 sequence (P49023 1-557 isoform P49023-2): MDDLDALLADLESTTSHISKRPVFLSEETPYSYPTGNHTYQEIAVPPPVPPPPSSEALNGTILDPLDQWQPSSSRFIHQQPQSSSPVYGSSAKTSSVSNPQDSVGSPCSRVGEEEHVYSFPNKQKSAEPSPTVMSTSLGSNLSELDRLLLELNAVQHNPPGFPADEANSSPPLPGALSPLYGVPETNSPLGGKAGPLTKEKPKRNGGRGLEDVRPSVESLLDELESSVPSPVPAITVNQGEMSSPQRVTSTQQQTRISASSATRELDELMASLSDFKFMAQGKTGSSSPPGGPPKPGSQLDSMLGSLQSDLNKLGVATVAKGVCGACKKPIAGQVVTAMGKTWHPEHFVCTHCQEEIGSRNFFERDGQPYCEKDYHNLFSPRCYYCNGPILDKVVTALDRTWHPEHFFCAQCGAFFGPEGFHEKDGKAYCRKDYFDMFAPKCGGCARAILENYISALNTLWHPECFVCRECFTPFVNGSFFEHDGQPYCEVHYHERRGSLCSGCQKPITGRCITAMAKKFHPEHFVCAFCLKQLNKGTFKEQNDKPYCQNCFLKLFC
The experiment in a line: Integrin tail affinity chromatography binding study. Here is the method:
FIG. 6 in two parts as 6A and 6B includes results of an affinity chromatography binding study (6A) and scanning densitometry results shown in graphical form for the bound Paxillin (6B). In 6A, recombinant HA-tagged GST-Paxillin (100 nM) was added to Ni^2+-charged resin loaded with α4 tail protein in the absence (lane a) or presence of compound 11-A7B7C7 (lane b, 5 μM; lane c, 25 μM; lane d, 100 μM) or compound 11-A6B6C6 (lane e, 25 μM). Bound protein was collected and separated by SDS-PAGE under reducing conditions, transferred to a nitrocellulose membrane, and stained with HA-tag-specific antibody, 12CA5. In 6B, bound Paxillin was quantified by scanning densitometry of those immunoblots using the NIH Image program. The depicted results are representative from two studies.
In order to confirm the effectiveness and selectivity of Compound 11-A7B7C7 at inhibiting Paxillin/α4 binding, a series of binding studies was conducted using affinity chromatography techniques [Liu S et al. (1999) Nature 402, 676-681; and Pfaff et al. (1998) J. Biol. Chem. 273, 6104-6109]. […] Bound protein was collected and separated by electrophoresis and analyzed by immunoblotting.
Integrin tail affinity chromatography was performed as described [Rose (2001) J. Immunol. 167, 2824-2830]. […]

Experiment [3] has as its system integrin α4β1-mediated migration of Jurkat T cells. The experiment is described as follows: Cell migration assay (modified Boyden chamber). Format: cell-based. To be noted: Homo sapiens. Here is the method:
Cell migration was assayed in a modified Boyden chamber assay system as previously described [Rose et al. (2001) J. Immunol. 167, 2824-2830]. […] 167, 2824-2830]. Transwells (Costar, Corning) polycarbonate membranes containing 3.0 μm pores were coated with 5 μg/ml recombinant soluble VCAM-1. Membranes were blocked with 2% BSA in PBS for 30 minutes at room temperature. 2.0×10^5 cells in RPMI-1640 containing the indicated concentration of the compound and a final concentration of 0.1% DMSO were added to the top chamber. SDF-1α (R&D Systems) at a final concentration of 15 ng/ml was added to the bottom chamber. Cells were permitted to migrate for 4 hours at 37° C. Cells in the bottom chamber were enumerated with a hemocytometer, and data are expressed as percent inhibition of migration. Depicted are the mean and range of duplicate determinations from one of two studies with similar results.
The Jurkat E6-1 T leukemic cell line was purchased from American Type Culture Collection (ATCC), Rockville, Md. and cultured in RPMI-1640 (Biowhitaker Inc, Walkersville, Md.) supplemented with 10% FCS (Biowhitaker Inc), 1% glutamine, 50 units/ml penicillin, and 50 μg/ml streptomycin (Sigma Chemical, St Louis, Mo.).
Cell migration was assayed in a modified Boyden chamber assay system. […]

Where [4] appears, read: read-out: IC50 of Paxillin/α4 binding inhibition.
[5] abbreviates: read-out: Inhibition of Pax/α4 binding (% at 1 μM).

Where two headings read alike, the source gives them in different places.

T1 sequence (P13612 1002-1032 limits assumed): as the sequence (P13612 1002-1032 limits assumed) above
T1 sequence (P49023 1-557 isoform P49023-2): as the sequence (P49023 1-557 isoform P49023-2) above

As to `COC(=O)c1cc2c3c(ccc2[nH]1)N(C(=O)c1cc2c4c(ccc2[nH]1)N(C(=O)c1cc2c5c(ccc2[nH]1)N(C(=O)CCCN(C)C)CC5)CC4)CC3` [Compound 11-A7B7C7, DMABA-CDPI3-OMe], the inhibition at 1 µM was determined as 76% in experiment [1] (1 μM, read-out: Inhibition (%) of α4/Paxillin Binding by Deconvoluted Samples of 11-AxByCz) and 78% in experiment [1] (setting [5]). Besides, the IC50 in experiment [1] (setting [4]) is 0.3 µM; in experiment [3] (Jurkat T cells, VCAM-1 coated membranes, SDF-1α, 4 hours, read-out: IC50 of inhibition of α4β1-mediated cell migration), around 10000 nM. The “Binding of Paxillin to the α4 tail protein” value in experiment [2] (GST-Paxillin 100 nM, immunoblot) is on record as “markedly reduced”. Moreover, the “Quantification of bound Paxillin (scanning densitometry)” value in experiment [2] (concentrations as low as 5 μM) is on record as “near background levels”. Further, the inhibition at 15 µM in experiment [3] (Jurkat, highest possible dose, 15 μM, read-out: Maximum inhibition of migration) is around 70%.
Consider `COC(=O)c1cc2c3c(ccc2[nH]1)N(C(=O)OC(C)(C)C)CC3` [Compound 15, Boc-CDPI-OMe], for which the “Inhibition of Pax/α4 binding (% at 1 μM)” value in experiment [1] (1 μM) came to 3%.
On the same count and under the same terms, to `COC(=O)c1cc2c3c(ccc2[nH]1)NCC3` [Compound 16, H-CDPI-OMe] belongs 19%; to `O=C(O)c1cc2c3c(ccc2[nH]1)NCC3` [Compound 17, H-CDPI-OH], 11%.
Consider `CC(C)(C)OC(=O)N1CCc2c1ccc1[nH]c(C(=O)O)cc21` [Compound 18, Boc-CDPI-OH], for which the “Inhibition of Pax/α4 binding (% at 1 μM)” value in experiment [1] (1 μM) is reported as 6%.
Regarding `COC(=O)c1cc2c3c(ccc2[nH]1)N(C(=O)c1cc2c4c(ccc2[nH]1)N(C(=O)OC(C)(C)C)CC4)CC3` [Compound 20, Boc-CDPI2-OMe], the “Inhibition of Pax/α4 binding (% at 1 μM)” value in experiment [1] (1 μM) was found to be 13%.
The same measure, in the same setting: to `COC(=O)c1cc2c3c(ccc2[nH]1)N(C(=O)c1cc2c4c(ccc2[nH]1)NCC4)CC3` [Compound 21, H-CDPI2-OMe] belongs 14%; to `O=C(O)c1cc2c3c(ccc2[nH]1)N(C(=O)c1cc2c4c(ccc2[nH]1)NCC4)CC3` [Compound 23, H-CDPI2-OH], 27%.
Take `COC(=O)c1cc2c3c(ccc2[nH]1)N(C(=O)c1cc2c4c(ccc2[nH]1)N(C(=O)c1cc2c5c(ccc2[nH]1)NCC5)CC4)CC3` [Compound 25, H-CDPI3-OMe]: in experiment [1] (setting [4]), the IC50 was 0.3 µM. Besides, the inhibition at 1 µM in experiment [1] (setting [5]) amounted to 73%.
Take `O=C(O)c1cc2c3c(ccc2[nH]1)N(C(=O)c1cc2c4c(ccc2[nH]1)N(C(=O)c1cc2c5c(ccc2[nH]1)NCC5)CC4)CC3` [Compound 26, H-CDPI3-OH]: the “Paxillin/α4 binding inhibition, result in words” value in experiment [1] was “only a slight reduction in potency”. In experiment [1] (setting [5]), the inhibition at 1 µM was found to be 68%. Besides, the IC50 in experiment [1] (read-out: inhibition of Pax/α4 binding (IC50 in μM)) amounted to 0.5 µM.
Turning to Boc-CDPI3-OMe [Compound 24], the “Paxillin/α4 binding inhibition, result in words” value in experiment [1] is “substantial loss of activity”. Moreover, in experiment [1] (1 μM), the “Inhibition of Pax/α4 binding (% at 1 μM)” value turned out to be 25%.
DMABA-CDPI2-OMe [Compound 22]: in experiment [1] (1 μM), the “Inhibition of Pax/α4 binding (% at 1 μM)” value came to 36%.
Same read-out and setting: the result for DMABA-CDPI-OMe [Compound 19] reads −3%.
